Source: US4416826A, “Peresters and use thereof” (priority 1980, dated 1983)
Entries after “also recorded” stand apart in the source; their conditions may differ.

How the values were obtained:
[1] = Polymerization of unsaturated polyester films under UV lamp (wipe resistance, pendulum hardness); conditions: for Passes necessary to achieve resistance to wiping: 0.2 parts in 10 parts resin, 100μ film, 17 m/min
Procedure: This mixture is stirred until a solution is obtained, which is then drawn out on glass plates with a film drawer (100μ). […] The samples are passed, on a conveyer belt, under the UV-lamp at a rate of 17 m/min. (20 volts).
In addition, the hardness of the film is determined using a pendulum apparatus according to Konig.

[2] = literature discussion; cited from earlier work
[3] = Photodecomposition kinetics and quantum yields at 366 nm (benzophenone-benzhydrol actinometry); format: physicochemical
Procedure: Kinetic studies are carried out in degassed, sealed tubes by irradiating them with 366 nm light obtained from a Hanovia medium-pressure mercury lamp by combining the Corning Filters 0-52 and 7-60. The decompositions of the […] followed by the carbonyl IR absorption adjacent to the peroxide group (O=COO--) (1770 cm^-1). Benzophenone-benzhydrol redox actinometry are used throughout the study. In particular, a solution of […] (2 mL) in the appropriate solvent is placed in Pyrex tubes (12-mm diameter), degassed, and sealed under vacuum. Three cycles of freeze-thaw removes dissolved oxygen. The tubes are placed in a merry-go-round around a water-cooled light source, removed at different predetermined intervals, and kept frozen in liquid nitrogen in the dark until analysis is done. The estimation of […] done by quantitative IR, monitoring the carbonyl peak at 1770 cm^-1. […] Absorbance is measured with a 0.1 mm NaCl cell against solvent reference. With every run, two tubes containing actinometric solutions (benzophenone (0.1 M) and benzhydrol (0.05 M) in benzene are irradiated.

[4] = Thermal stability / thermal decomposition of peresters in the dark; format: physicochemical
[5] = Polymerization of methyl methacrylate; conditions: initiator 5 × 10^-2 M, [MMA] = 3.1 M, 25° C., benzene
Procedure: Commercial methyl methacrylate monomer is washed three times with 2% NaOH solution to remove stabilizer. It is then washed with distilled water three times, dried with molecular sieves, and distilled under vacuum before use. Polymerization solutions are prepared in cylindrical tubes which are degassed and sealed. The amount of polymer formed is determined by precipitating the polymer with an excess of methanol, washing with methanol, and filtering through fine sintered crucibles (previously weighed) followed by drying in a vacuum oven. The irradiation condition is the same as that in the decomposition rate example hereinabove.

Triplet energy = format: physicochemical
[6] = Stern-Volmer triplet quenching with naphthalene; format: physicochemical; conditions: C6 H6
Source text: All the peresters give linear Stern-Volmer plots when naphthalene is used as triplet quencher.

[7] = Photolysis of peresters and analysis of photoproducts; format: physicochemical; conditions: methanol compared with cyclohexane or with other peresters
Procedure: The amount of perester used is in the range of 300-500 mg. The solutions are placed in Pyrex tubes, flushed with nitrogen for 10 min., and sealed with a rubber cap.
After the irradiation, the yield of CO2 is measured by applying N2 pressure and trapping the CO2 with a Ba(OH)2 solution. The photolyzed solutions are evaporated (in the case of perester Ia treatment with excess diazomethane gives the best separation procedure) and again evaporated. Chromatography over 2 mm silica gel plates (E. Merck) with dichloromethane as the developing solvent separates the products. Extraction of the silica gel is done with ether. The identity of each sample is confirmed by GLC or high-pressure LC by comparison with authentic samples or by melting points of the solids.
This is shown by comparison with an authentic sample and combination of spectroscopic techniques. […] The same product is formed when 4-benzoylbenzoic acid is irradiated for 2 hours in CH3 OH in 26% yield. The structure of this secondary photoproduct is shown by independent synthesis (reduction of methyl 4-benzoylbenzoate by NaBH4). Among other secondary photoproducts found in small amounts is a mixture of pinacols. These are confirmed by synthesis of a similar pinacol mixture upon irradiation of methyl 4-benzoylbenzoate in isopropyl alcohol. […]

[8] = Photopolymerization of styrene, radical efficiency; conditions: chloroform, [I] 5.00 × 10^-3 M
Procedure: (§1) Commercial styrene is washed three times with ice cold 2% NaOH solution followed by washing (four times) with distilled water. The styrene is dried over anhydrous CaCl2 and distilled under vacuum before use. The middle fraction of the distillate is used for polymerization. Solvents are purified by conventional means and distilled under N2 atmosphere.
(§2) The irradiations are carried out in degassed (three cycles of freeze-thaw under high vacuum) sealed 15-mm Pyrex tubes. The tubes are placed in a merry-go-round with a filtered UV source of 366 nm at the center and the yield of polymer is measured (below 10% conversion) gravimetrically. In all of the cases, tubes of the same size and same volume of solution are used. Number-average molecular weights of the purified polymers are determined by viscometry in a benzene solution. After the polymerization, an aliquot of 0.5 ml from each reaction tube is placed in 2-ml volumetric flasks. The solvent and excess monomer are evaporated under high vacuum for several hours. The remaining flask contents are dissolved in 0.5 ml of benzene or chloroform and the polymer is precipitated by adding 0.5 ml of n-hexane. The solution then is centrifuged and the IR of the centrifugate is measured to determine undecomposed perester. All of the above procedures are carried out as far as possible in the dark. The light intensity is measured by benzophenone-benzhydrol actinometry and observed to be Io =6.56×10^17 quanta/min on the average. The temperature of the tubes is maintained at 30° C.
The efficiency of the radicals to initiate polymerization, f, in the absence of any appreciable amount of chain transfer, can be defined as [formula] assuming bimolecular termination by the combination of two growing chains only [formula] whereas kd =rate of decomposition of perester in mol/liter sec. in the absence of monomer (a function of light intensity).

[9] = End group analysis of polystyrene by IR
Procedure: The polystyrene obtained from each of the above polymerizations is purified by repeated (four times) precipitation from benzene solution with methanol. Before each precipitation, the benzene solution is centrifuged to remove any insoluble material. The finely powdered polymer is filtered and dried under vacuum for two days. Known amounts of polymer are dissolved in benzene and the IR is taken (2000-1500 cm^-1) against benzene in 0.1-mm NaCl cells. The peaks at 1730 and 1670 cm^-1 for the carbonyl groups, caused by ester and benzophenones, respectively, are measured. […] The extinction coefficient of the carbonyl group at 1730 cm^-1 is compared with that of authenticated methyl benzoylbenzoate, which is used as a model to measure the concentration of the ester end groups in the polymer. From the concentration of the ester and the extinction resulting from the carbonyl group in the benzophenone, the absorption caused by the benzophenone that is present as the ester can be calculated. The value is subtracted from the absorption obtained at 1670 cm^- 1 for the polymer. From the resulting absorption, the concentration of benzophenone alone is estimated from the known extinction of benzophenone at that wavelength.

[10] = Relative quantum yield of initiator decomposition in presence of monomer (IR at 1770 cm^-1); format: physicochemical; conditions: for relative quantum yield φrel of decomposition: chloroform, initiator 2 × 10^-2 M
Procedure: as §1, §2
The decomposition of the initiator employed is followed by IR at 1770 cm^-1 (caused by the carbonyl adjacent to the peroxy group) against an appropriate solvent blank. The initiators employed are .rho.-benzoylperoxybenzoic acid tert-butylester (Ia) and prior art benzophenone peroxide. In addition, the above procedure is repeated except that methyl methacrylate is employed in place of styrene. Table IX below illustrates the relative quantum yield for the decomposition of the initiators in the recited amounts of monomers, assuming that the quantum yield for the decomposition of the perester and peroxide in the absence of any monomer is one.

Solubility in benzene = format: physicochemical
[11] = 110° C., chlorobenzene, dark, initial concn Ia 5.01, Ib 5.15, Ic 5.19 × 10^-2 M
[12] = Exp. 7: chloroform, [I] 5.0 × 10^-3 M, styrene 3.61 M
[13] = Exp. 8: chloroform, [I] 4.52 × 10^-3 M, styrene 4.33 M
[14] = Exp. 9: chloroform, [I] 4.94 × 10^-3 M, styrene 5.88 M

COc1ccc(C(=O)c2ccc(C(=O)OOC(C)(C)C)cc2)cc1
Passes necessary to achieve resistance to wiping [1]: 14 | Pendulum hardness according to Konig, H ([1]; after 14 passes): 23 | Pendulum hardness according to Konig, H ([1]; after 16 passes): 26

Cc1ccc(C(=O)c2ccc(C(=O)OOC(C)(C)C)cc2)cc1
Passes necessary to achieve resistance to wiping [1]: 13 | Pendulum hardness according to Konig, H ([1]; after 13 passes): 23 | Pendulum hardness according to Konig, H ([1]; after 15 passes): 51

O=C(c1ccccc1)c1ccccc1 [Benzophenone, reference compound]
Passes necessary to achieve resistance to wiping [1]: > 20 | Pendulum hardness according to Konig, H ([1]; number of passes for hardness not given): wet | triplet energy [2]: ~69 kcal/mol

O=C(OOC(=O)c1ccccc1)c1ccccc1 [Bz2 O2, benzoyl peroxide, reference compound]
photodecomposition behaviour, in words ([3]; 366 nm radiation, room temperature): photostable | quantum yield of sensitized decomposition (φ of dec) ([3]; C6 H6, 4.67 × 10^-2 M, benzophenone 5.89 × 10^-2 M): 0.32 | sensitized photodecomposition rate constant kd × 10^4 ([3]; C6 H6, 25° C., 4.67 × 10^-2 M, benzophenone 5.89 × 10^-2 M, given as kd × 10^4): 0.64 s^-1 | quantum yield of sensitized decomposition (φ of dec) ([3]; CCl4, 3.50 × 10^-2 M, benzophenone 3.75 × 10^-2 M): 0.17 | thermal decomposition, in words ([4]; 80° C. in benzene): a decomposition rate comparable to the literature value | Rate of Polymerization (Rp) of MMA, Rp × 10^5 ([5]; benzophenone 5.5 × 10^-2 M): 2.58 mL^-1 s^-1

Cc1cc(C)c(C(=O)c2ccc(C(=O)OOC(C)(C)C)cc2)c(C)c1 [Ib, Tert-butyl-4-(2',4',6'-trimethylbenzoyl)perbenzoate]
apparent first-order photodecomposition rate constant kd × 10^4 ([3]; C6 H6, 25° C., 366 nm, I = 6.56 × 10^17 quanta/min, 5.03-6.06 × 10^-2 M, given as kd × 10^4): 1.34 s^-1 | quantum yield of decomposition (φ of dec) ([3]; C6 H6, 366 nm, perester 5.03-6.06 × 10^-2 M): 0.80 | quantum yield of decomposition (φ of dec) ([3]; methanol, TBP 5.08 × 10^-2 M, Ia 5.38, Ib 6.15 × 10^-2 M): 0.62 | quantum yield of decomposition (φ of dec) ([3]; methanol, no TBP, Ia 5.38, Ib 6.15, Ic 5.10 × 10^-2 M): 1.30 | triplet energy ET (Triplet energy): 67.4 kcal/mol | quenching constant kq τ [6]: 15 | thermal 1st order dec rate × 10^5 [4, 11]: 1.80 M × 10^5 s^-1 | thermal half-life t1/2 [4, 11]: 10.7 h | Rate of Polymerization (Rp) of MMA, Rp × 10^5 [5]: 8.31 mL^-1 s^-1 | rate of photodecomposition, qualitative [7]: the effect of methanol is to slow the rate of decomposition; also recorded: apparently slower rate of decomposition in methanol than either that of Ia or Ic

O=C(OOC(=O)c1ccc(C(=O)c2ccccc2)cc1)c1ccc(C(=O)c2ccccc2)cc1 [Peroxide, reference compound]
Average degree of polymerization ([8]; [M] 3.61 M): 159.6 | Radical efficiency f ([8]; [M] 3.61 M): 0.33 | Rp × 10^5 ([8]; [M] 3.61 M): 1.07 mole/liter sec | φrel ([8]; [M] 3.61 M): 0.08 | Average degree of polymerization ([8]; [M] 4.33 M): 155.8 | Radical efficiency f ([8]; [M] 4.33 M): 0.33 | Rp × 10^5 ([8]; [M] 4.33 M): 1.04 mole/liter sec | φrel ([8]; [M] 4.33 M): 0.08 | Average degree of polymerization ([8]; [M] 5.88 M): 372.9 | Radical efficiency f ([8]; [M] 5.88 M): 0.26 | Rp × 10^5 ([8]; [M] 5.88 M): 1.72 mole/liter sec | φrel ([8]; [M] 5.88 M): 0.08 | total number of benzophenones as end groups per chain, in words [9]: almost two | end groups per chain, Benzophenone [9, 12]: 0.54 | end groups per chain, Benzophenone as ester [9, 12]: 1.29 | end groups per chain, Total [9, 12]: 1.83 | end groups per chain, Benzophenone [9, 13]: 0.62 | end groups per chain, Benzophenone as ester [9, 13]: 1.30 | end groups per chain, Total [9, 13]: 1.92 | end groups per chain, Benzophenone [9, 14]: 0.72 | end groups per chain, Benzophenone as ester [9, 14]: 1.36 | end groups per chain, Total [9, 14]: 2.08 | effect of styrene on quantum yield of decomposition, in words [10]: the quenching effect being greater with the peroxide than the perester | relative quantum yield φrel of decomposition ([10]; styrene 2.18 M): 0.05 | relative quantum yield φrel of decomposition ([10]; styrene 2.23 M): 0.06 | relative quantum yield φrel of decomposition ([10]; styrene 4.26 M): 0.08 | solubility in benzene (Solubility in benzene): insoluble in benzene

C=Cc1ccccc1 [Styrene]
triplet energy [2]: 62 kcal/mol

CC(C)(C)OOC(=O)c1ccc(C(=O)c2ccccc2)cc1 [drawing 15]
Passes necessary to achieve resistance to wiping [1]: 12 | Pendulum hardness according to Konig, H ([1]; after 12 passes): 24 | Pendulum hardness according to Konig, H ([1]; after 14 passes): 38
